Experimental data published in patent publication US6541501B2, “2-(aminomethyl)-tetrahydro-9-oxa-1,3-diaza-cyclopenta[a]-naphthalenyl derivatives with antipsychotic activity” (Wyeth, priority 2001, dated 2003).
Where a name gives a salt, the structure may show the parent alone.

How the values were obtained:
[1] = biological target: T1, dopamine autoreceptor (D2 Quin.) (Rattus norvegicus, UniProt P61169); assay: Affinity for the dopamine autoreceptor, [3H]-quinpirole binding in homogenized rat striatal brain tissue
T1 construct: from tissue; host or cells: rat striatal brain tissue homogenate
T1 sequence (P61169 whole entry): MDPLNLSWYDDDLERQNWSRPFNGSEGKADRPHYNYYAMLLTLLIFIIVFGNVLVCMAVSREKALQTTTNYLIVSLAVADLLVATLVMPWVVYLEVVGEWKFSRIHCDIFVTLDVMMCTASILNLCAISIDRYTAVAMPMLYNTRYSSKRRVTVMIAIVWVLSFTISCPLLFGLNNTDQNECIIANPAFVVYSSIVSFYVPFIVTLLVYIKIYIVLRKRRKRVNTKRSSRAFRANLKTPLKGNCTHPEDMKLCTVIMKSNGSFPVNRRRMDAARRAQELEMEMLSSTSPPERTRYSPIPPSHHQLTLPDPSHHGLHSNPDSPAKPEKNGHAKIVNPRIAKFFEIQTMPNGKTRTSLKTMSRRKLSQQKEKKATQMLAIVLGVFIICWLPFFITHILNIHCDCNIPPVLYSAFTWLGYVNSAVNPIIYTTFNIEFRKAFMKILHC
Experimental: Affinity for the dopamine autoreceptor was established by a modification of the standard experimental test procedure of Seemen and Schaus, European Journal of Pharmacology 203: 105-109, 1991, wherein homogenized rat striatal brain tissue is incubated with [^3H]-quinpirole (Quin.) at various concentrations of test compound, filtered, washed and counted in a Betaplate scintillation counter.

[2] = test system: dopamine D2 receptor; assay: Affinity for the dopamine D2 receptor, [3H]-spiperidone binding in homogenized limbic brain tissue; conditions: ratio of IC50 D2 Spiper to IC50 D2 Quin. (LowAg/HighAg)
Experimental: High affinity for the dopamine D2 receptor was established by the standard experimental test procedure of Fields, et al., Brain Res., 136, […] (1977) and Yamamura et al., ed., Neurotransmitter Receptor Binding, Chapter 9, page 171, Raven Press, N.Y. (1978) wherein homogenized limbic brain tissue is incubated with [^3H]-spiperidone at various concentrations of test compound, filtered washed, and shaken with Hydrofluor scintillation cocktail (National Diagnostics) and counted in a Packard 460 CD scintillation counter.

melting point [°C]	Compound	IC50 [1] [nM]	Ratio [2]
229	O=c1[nH]c2c([nH]1)=C1OC(CNCc3ccccc3)CC=C1CC=2 (stereo not drawn) (as salt: oxalate) [Example 1, 8-(Benzylamino-methyl)-3,5,7,8-tetrahydro-9-oxa-1,3-diaza-cyclopenta[a]naphthalen-2-one]	–	–
–	O=c1[nH]c2ccc3c(c2[nH]1)OC(CNCc1ccccc1)CC3 (stereo not drawn) [Example 1, 8-(Benzylamino-methyl)-3,5,7,8-tetrahydro-9-oxa-1,3-diaza-cyclopenta[a]naphthalen-2-one]	0.29	309
